Converted amounts (≈) assume the structure as drawn. The source made the active and inactive calls. The calls are words filed in the database; no cut-off is given here.
Columns and labels:
[1] = target: T1, Peroxisome proliferator-activated receptor alpha (Homo sapiens) (UniProt Q07869); experiment: Transactivation of human PPARalpha expressed in African green monkey COS7 cells at 10 uM incubated overnight by dual-glo luciferase reporter assay; format: cell-based; conditions: COS-7
T1 sequence (whole entry): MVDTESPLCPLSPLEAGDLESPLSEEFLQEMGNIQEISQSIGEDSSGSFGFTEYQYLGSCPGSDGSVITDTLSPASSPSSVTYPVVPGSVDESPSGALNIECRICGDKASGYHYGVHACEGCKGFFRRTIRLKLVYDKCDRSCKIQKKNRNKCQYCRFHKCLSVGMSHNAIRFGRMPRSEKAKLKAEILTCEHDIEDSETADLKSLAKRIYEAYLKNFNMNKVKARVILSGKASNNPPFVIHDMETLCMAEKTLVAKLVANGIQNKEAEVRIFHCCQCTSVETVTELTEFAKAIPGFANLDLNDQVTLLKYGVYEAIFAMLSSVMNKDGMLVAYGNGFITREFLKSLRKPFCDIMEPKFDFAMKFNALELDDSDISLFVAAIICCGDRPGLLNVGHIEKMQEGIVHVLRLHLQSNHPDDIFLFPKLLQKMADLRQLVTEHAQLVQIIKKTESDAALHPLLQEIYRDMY

[2] = target: T2, Bifunctional epoxide hydrolase 2 (Homo sapiens, UniProt P34913); experiment: Inhibition of human recombinant sEH using PHOME as substrate preincubated for 30 mins followed by substrate addition measured for 30 mins by fluorescence-based assay
T2 sequence (P34913 whole entry): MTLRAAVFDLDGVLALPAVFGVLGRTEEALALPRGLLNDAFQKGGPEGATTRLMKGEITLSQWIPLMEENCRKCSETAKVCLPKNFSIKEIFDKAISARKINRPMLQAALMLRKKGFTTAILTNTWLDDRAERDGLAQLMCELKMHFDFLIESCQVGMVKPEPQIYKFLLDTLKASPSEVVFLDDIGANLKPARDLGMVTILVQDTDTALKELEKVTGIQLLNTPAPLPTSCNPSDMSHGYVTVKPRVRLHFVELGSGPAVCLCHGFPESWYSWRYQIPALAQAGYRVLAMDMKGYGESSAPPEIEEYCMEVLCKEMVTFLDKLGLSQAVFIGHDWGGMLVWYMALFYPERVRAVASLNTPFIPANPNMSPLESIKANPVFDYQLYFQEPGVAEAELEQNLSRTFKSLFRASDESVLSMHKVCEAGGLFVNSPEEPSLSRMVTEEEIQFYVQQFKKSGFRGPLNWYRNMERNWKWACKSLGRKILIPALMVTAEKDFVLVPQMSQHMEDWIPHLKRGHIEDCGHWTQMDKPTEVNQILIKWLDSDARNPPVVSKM

[3] = target: T3, Peroxisome proliferator-activated receptor delta (Homo sapiens, UniProt Q03181); experiment: Transactivation of human PPARdelta expressed in African green monkey COS7 cells incubated overnight by dual-glo luciferase reporter gene assay; format: cell-based; conditions: cos-7
T3 sequence (Q03181 whole entry): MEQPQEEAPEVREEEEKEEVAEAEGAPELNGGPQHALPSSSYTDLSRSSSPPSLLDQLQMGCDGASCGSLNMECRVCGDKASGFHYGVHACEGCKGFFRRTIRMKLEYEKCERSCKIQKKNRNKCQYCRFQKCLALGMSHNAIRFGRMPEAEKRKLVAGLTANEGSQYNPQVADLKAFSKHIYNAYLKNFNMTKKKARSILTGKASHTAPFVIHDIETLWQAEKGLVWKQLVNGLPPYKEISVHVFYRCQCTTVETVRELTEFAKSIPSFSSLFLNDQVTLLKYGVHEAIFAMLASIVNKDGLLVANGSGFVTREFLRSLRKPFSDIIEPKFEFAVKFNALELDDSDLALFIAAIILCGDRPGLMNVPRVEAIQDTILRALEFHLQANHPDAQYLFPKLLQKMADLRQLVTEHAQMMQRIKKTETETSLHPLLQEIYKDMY

[4] = Solubility of the compound in water by microplate reader analysis; format: physicochemical
[5] = target: T1, Peroxisome proliferator-activated receptor alpha (Homo sapiens); experiment: Transactivation of human PPARalpha expressed in African green monkey COS7 cells incubated overnight by dual-glo luciferase reporter assay relative to GW7647; format: cell-based; conditions: COS-7
[6] = target: T4, Peroxisome proliferator-activated receptor delta (Homo sapiens) (UniProt Q03181); experiment: Transactivation of human PPARdelta expressed in African green monkey COS7 cells at 10 uM incubated overnight by dual-glo luciferase reporter assay; format: cell-based; conditions: COS-7
T4 sequence (whole entry): T3 sequence (Q03181 whole entry)

[7] = target: T5, Peroxisome proliferator-activated receptor alpha (Homo sapiens, UniProt Q07869); conditions: cos-7
T5 sequence (Q07869 whole entry): T1 sequence (whole entry)
Description: Transactivation of human PPARalpha expressed in African green monkey COS7 cells incubated overnight by dual-glo luciferase reporter gene assay

[8] = target: T6, Bifunctional epoxide hydrolase 2 (Homo sapiens) (UniProt P34913); experiment: Inhibition of human recombinant sEH using PHOME as substrate at 10 uM preincubated for 30 mins followed by substrate addition measured for 30 mins by fluorescence-based assay
T6 sequence (whole entry): T2 sequence (P34913 whole entry)

Structure (SMILES) | Activity [1] | IC50 [2] | EC50 [3] | solubility [4] | Emax [5] | Emax [6] | EC50 [7] | inhibition [8]
CCOC(=O)C(CC)Cc1ccc(C(=O)NCc2ccc(OC)cc2C(F)(F)F)cc1 (stereo not drawn) | 22% | 0.03 µM | Not Active |  |  |  |  | 
CCCC(Cc1ccc(C(=O)NCc2ccccc2C(F)(F)F)cc1)C(=O)O (stereo not drawn) |  |  | Not Active | 375 µM (≈ 148 µg/mL) | inactive | inactive | Not Active | 
CCC(Cc1cccc(C(=O)NCc2ccccc2C(F)(F)F)c1)C(=O)O (stereo not drawn) | 34% |  | Not Active |  |  | inactive |  | 
CCOC(=O)C(CC)Cc1ccc(C(=O)NCc2ccccc2C)cc1 (stereo not drawn) | 15% | 0.9 µM | Not Active |  |  |  |  | 
O=C(NCc1ccccc1C(F)(F)F)c1ccc(C2CC2C(=O)O)cc1 (stereo not drawn) |  |  | Not Active |  | inactive | inactive | Not Active | 
CCOC(=O)C(C)Cc1ccc(C(=O)NCc2ccccc2C(F)(F)F)cc1 (stereo not drawn) |  |  | Not Active | 7.5 µM (≈ 2.95 µg/mL) | inactive | inactive | Not Active | 
CCOC(=O)C(CC)Cc1ccc(C(=O)NCc2ccccc2OC(F)(F)F)cc1 (stereo not drawn) |  | 0.03 µM | Not Active | 75 µM (≈ 31.8 µg/mL) | inactive |  | Not Active | 
CCOC(=O)C(CC)Cc1ccc(C(=O)NCc2ccc(C(F)(F)F)cc2)cc1 (stereo not drawn) | 22% | 0.57 µM | Not Active |  |  |  |  | 
CCC(Cc1ccc(C(=O)NCc2ccc(F)cc2C(F)(F)F)cc1)C(=O)O (stereo not drawn) |  | 1.2 µM | Not Active |  | inactive |  | Not Active | 
CCC(Cc1ccc(C(=O)NCc2ccccc2Br)cc1)C(=O)O (stereo not drawn) |  |  | Not Active | 375 µM (≈ 146 µg/mL) | inactive |  | Not Active | 34%
CCOC(=O)C(CC)Cc1cccc(C(=O)NCc2ccccc2C(F)(F)F)c1 (stereo not drawn) |  |  | Not Active |  | inactive | inactive | Not Active | 
CCOC(=O)C(CC)Cc1ccc(C(=O)NCc2ccc(Cl)cc2)cc1 (stereo not drawn) |  | 1.7 µM | Not Active | 7.5 µM (≈ 2.8 µg/mL) | inactive |  | Not Active | 
CCOC(=O)C(CC)Cc1ccc(C(=O)NCc2ccc(F)cc2)cc1 (stereo not drawn) |  | 2.2 µM | Not Active |  | inactive |  | Not Active | 
CCOC(=O)C(CC)Cc1ccc(C(=O)NCc2ccc(OC(F)(F)F)cc2)cc1 (stereo not drawn) |  | 0.9 µM | Not Active |  |  |  |  | 
CCC(Cc1ccc(C(=O)NCc2ccc(Cl)cc2)cc1)C(=O)O (stereo not drawn) |  | 1.5 µM | Not Active | 375 µM (≈ 130 µg/mL) | inactive |  | Not Active | 
CCOC(=O)CCc1ccc(C(=O)NCc2ccccc2C(F)(F)F)cc1 |  |  | Not Active | 3.75 µM (≈ 1.42 µg/mL) | inactive | inactive | Not Active | 
CCOC(=O)C(CC)Cc1ccc(C(=O)NCc2ccccc2Cl)cc1 (stereo not drawn) |  | 3.8 µM | Not Active |  | inactive |  | Not Active | 

Structure (SMILES) | Activity [1] | IC50 [2] | EC50 [3] | solubility [4] | Emax [5] | Emax [6] | EC50 [7] | inhibition [8]
CCOC(=O)C(CC)Cc1ccc(C(=O)NCc2ccc(OC)cc2)cc1 (stereo not drawn) |  | 0.62 µM | Not Active | 7.5 µM (≈ 2.77 µg/mL) | inactive |  | Not Active | 
CCCC(Cc1ccc(C(=O)NCc2ccccc2C(F)(F)F)cc1)C(=O)OCC (stereo not drawn) |  |  | Not Active | 3.75 µM (≈ 1.58 µg/mL) | inactive | inactive | Not Active | 
CCOC(=O)C(Cc1ccc(C(=O)NCc2ccccc2C(F)(F)F)cc1)c1ccccc1 (stereo not drawn) |  |  | Not Active | 3.75 µM (≈ 1.71 µg/mL) | inactive | inactive | Not Active | 
CCOC(=O)C(CC)Cc1ccc(C(=O)NCc2ccccc2)cc1 (stereo not drawn) |  | 8.5 µM | Not Active |  | inactive |  | Not Active | 
CC(Cc1ccc(C(=O)NCc2ccccc2C(F)(F)F)cc1)C(=O)O (stereo not drawn) |  |  | Not Active | 375 µM (≈ 137 µg/mL) | inactive | inactive | Not Active | 
CCC(Cc1ccc(C(=O)NCc2ccccc2)cc1)C(=O)O (stereo not drawn) |  |  | Not Active |  | inactive |  | Not Active | 4%
O=C(NCc1ccccc1C(F)(F)F)c1ccc(CC(C(=O)O)c2ccccc2)cc1 (stereo not drawn) |  |  | Not Active | 75 µM (≈ 32.1 µg/mL) | inactive | inactive | Not Active | 
CCC(Cc1ccc(C(=O)NCc2ccccc2Cl)cc1)C(=O)O (stereo not drawn) |  |  | Not Active |  | inactive |  | Not Active | 20%
CCC(Cc1ccc(C(=O)NCc2ccc(OC(F)(F)F)cc2)cc1)C(=O)O (stereo not drawn) |  | 14 µM | Not Active |  |  |  |  | 
O=C(O)CCc1ccc(C(=O)NCc2ccccc2C(F)(F)F)cc1 |  |  | Not Active | 375 µM (≈ 132 µg/mL) | inactive | inactive | Not Active | 
CCC(Cc1ccc(C(=O)NCc2ccc(OC)cc2)cc1)C(=O)O (stereo not drawn) |  |  | Not Active | 375 µM (≈ 128 µg/mL) | inactive |  | Not Active | 34%
CCC(Cc1ccc(C(=O)NCc2ccccc2C)cc1)C(=O)O (stereo not drawn) |  |  | Not Active |  | inactive |  | Not Active | 25%
CCC(Cc1ccc(C(=O)NCc2ccc(F)cc2)cc1)C(=O)O (stereo not drawn) |  |  | Not Active |  | inactive |  | Not Active | 28%
CC/C(=C\c1ccc(C(=O)NCc2ccccc2C(F)(F)F)cc1)C(=O)O |  |  | Not Active |  | inactive | inactive | Not Active | 
CCC(Cc1ccc(C(=O)NCc2ccccc2OC(F)(F)F)cc1)C(=O)O (stereo not drawn) |  |  | Not Active | 375 µM (≈ 148 µg/mL) | inactive |  | Not Active | 23%
CCOC(=O)/C(=C/c1ccc(C(=O)NCc2ccccc2C(F)(F)F)cc1)CC |  |  | Not Active |  | inactive | inactive | Not Active | 
CCOC(=O)C(CC)Cc1ccc(C(=O)NCc2ccc(F)cc2C(F)(F)F)cc1 (stereo not drawn) |  | 0.12 µM | Not Active |  | inactive |  | Not Active | 

Source: ChEMBL document CHEMBL3763124, “N-Benzylbenzamides: A Novel Merged Scaffold for Orally Available Dual Soluble Epoxide Hydrolase/Peroxisome Proliferator-Activated Receptor γ Modulators” (J Med Chem, 2016)
